Read-outs that look alike come from different tables or passages of the source.
Tests used:
opioid μ receptor = target: T1, opioid μ receptor (Homo sapiens, UniProt P35372); test: Opioid receptor functional test (Lance Ultra cAMP Kit), μ receptor agonist activity; assay type: cell-based; settings: hydrochloride was used; for Emax at 10 µM: maximum concentration (10 μM), reaction did not reach the maximum, EC50 N.C., relative to DAMGO, read-out: μ Receptor responce rate at the maximum concentration (reference value); for EC50: CHO cells expressing μ opioid receptor, 10 μM forskolin, cAMP; for Emax: maximum response relative to DAMGO taken as 100%, read-out: μ Receptor Emax
T1 construct: expressed in transfected cells; host or cells: CHO cells
Experimental: (§1) Functional activities of the compounds of the present invention for the μ, […], and κ opioid receptors were investigated.
(§2) The test was performed according to a prescribed method by using Lance Ultra cAMP Kit (Perkin-Elmer). The agonist activities were evaluated as follows. The CHO cells expressing each opioid receptor (μ, δ, or κ) and a test compound were reacted in an assay buffer (1×HBSS, […], pH 7.4, […] IBMX (isobutylmethylxanthine), 7.5% BSA) for 30 minutes in the presence of 10 μM forskolin. Then, the cAMP detection reagent included in the kit was added, and after 1 hour, time-resolved fluorescence measurements were performed by using the EnVision plate reader (Perkin-Elmer). A dose-responce curve of the test compound was obtained from fluorescence values measured at 665 nm, and EC50 value and Emax value were calculated. The Emax value was calculated as a ratio of the maximum responce of the test compound with respect to the maximum responce of each control agent (SNC80 for δ, DAMGO for μ, U-69593 for κ) taken as 100%.
(§3) 1): Hydrochloride was used.

ICR male mice = test: Analgesic activity (acetic acid writhing method); assay type: in vivo; settings: Mus musculus, sc; 3 mg/kg subcutaneous, 0.6% acetic acid i.p., writhing inhibition rate vs solvent group; hydrochloride was used; read-out: Inhibitory activities against writhing
Experimental: ICR male mice were used as groups each consisting of eight mice. Twenty minutes after the subcutaneous administration of a test compound (3 mg/kg), a 0.6% aqueous solution of acetic acid was intraperitoneally administered (0.1 mL/10 g body weight), and from the point 5 minutes after the administration, number of writhing observed over 20 minutes was counted. The analgesic activity was evaluated on the basis of the writhing inhibition rate (% inhibition) of the test compound administration group with respect to the writhing number of the solvent administration group.
1): Hydrochloride was used. 2): The evaluation results of the inhibitory activities against writhing were classified on the basis of the inhibition rate as follows. ≧90%, +++; 70≦%<90, ++; 50≦%<70, +

opioid κ receptor = target: T2, opioid κ receptor (Homo sapiens, UniProt P41145); test: Opioid receptor functional test (Lance Ultra cAMP Kit), κ receptor agonist activity; assay type: cell-based; settings: hydrochloride was used; for Emax at 10 µM: maximum concentration (10 μM), reaction did not reach the maximum, EC50 N.C., relative to U-69593, read-out: κ Receptor responce rate at the maximum concentration (reference value); for EC50: CHO cells expressing κ opioid receptor, 10 μM forskolin, cAMP, read-out: κ Receptor EC50 value; for Emax: maximum response relative to U-69593 taken as 100%, read-out: κ Receptor Emax
T2 construct: expressed in transfected cells; host or cells: CHO cells
Experimental: as §1, §2, §3

opioid δ receptor = target: T3, opioid δ receptor (Homo sapiens, UniProt P41143); test: Opioid receptor functional test (Lance Ultra cAMP Kit), δ receptor agonist activity; assay type: cell-based; settings: for Emax: read-out: δ Receptor Emax
T3 construct: expressed in transfected cells; host or cells: CHO cells
Experimental: as §1, §2, §3

[1] = CHO cells expressing δ opioid receptor, 10 μM forskolin, cAMP, hydrochloride was used, read-out: δ Receptor EC50 value
[2] = maximum response relative to SNC80 taken as 100%, hydrochloride was used

T1 sequence (P35372 whole entry): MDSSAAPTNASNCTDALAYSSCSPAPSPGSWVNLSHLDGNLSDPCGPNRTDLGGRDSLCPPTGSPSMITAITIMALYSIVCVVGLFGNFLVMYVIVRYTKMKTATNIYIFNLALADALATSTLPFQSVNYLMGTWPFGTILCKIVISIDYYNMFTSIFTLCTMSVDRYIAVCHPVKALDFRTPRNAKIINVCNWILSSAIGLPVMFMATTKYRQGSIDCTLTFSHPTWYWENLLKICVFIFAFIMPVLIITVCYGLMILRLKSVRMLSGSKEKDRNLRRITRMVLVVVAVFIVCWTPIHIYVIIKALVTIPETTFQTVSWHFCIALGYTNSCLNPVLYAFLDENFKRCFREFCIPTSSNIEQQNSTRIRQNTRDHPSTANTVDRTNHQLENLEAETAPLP
T3 sequence (P41143 whole entry): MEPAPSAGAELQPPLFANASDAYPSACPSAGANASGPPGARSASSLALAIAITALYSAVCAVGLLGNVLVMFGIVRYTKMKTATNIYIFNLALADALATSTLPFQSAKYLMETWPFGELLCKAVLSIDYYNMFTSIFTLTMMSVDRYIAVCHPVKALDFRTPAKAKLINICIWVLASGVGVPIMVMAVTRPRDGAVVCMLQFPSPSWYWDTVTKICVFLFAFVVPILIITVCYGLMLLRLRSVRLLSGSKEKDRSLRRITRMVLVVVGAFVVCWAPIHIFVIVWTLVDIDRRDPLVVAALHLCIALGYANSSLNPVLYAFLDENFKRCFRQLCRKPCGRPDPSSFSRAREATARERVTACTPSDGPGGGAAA
T2 sequence (P41145 whole entry): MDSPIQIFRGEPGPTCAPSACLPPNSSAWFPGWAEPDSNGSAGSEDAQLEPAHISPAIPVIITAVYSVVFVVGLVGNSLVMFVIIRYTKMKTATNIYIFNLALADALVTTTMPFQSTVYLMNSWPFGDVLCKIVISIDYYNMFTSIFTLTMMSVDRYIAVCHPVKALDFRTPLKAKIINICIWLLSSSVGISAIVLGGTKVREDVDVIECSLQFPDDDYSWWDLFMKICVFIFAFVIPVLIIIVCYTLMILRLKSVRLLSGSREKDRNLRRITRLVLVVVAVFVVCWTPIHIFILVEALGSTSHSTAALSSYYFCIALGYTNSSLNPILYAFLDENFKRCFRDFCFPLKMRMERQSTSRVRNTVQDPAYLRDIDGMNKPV

Compound	Emax at 10 µM (opioid μ receptor)	inhibition in vivo at 3 mg/kg (ICR male mice)	Emax at 10 µM (opioid κ receptor)	EC50 (opioid δ receptor)	Emax (opioid δ receptor)	EC50 (opioid δ receptor; [1])	Emax (opioid δ receptor; [2])	EC50 (opioid κ receptor)	Emax (opioid κ receptor)	EC50 (opioid μ receptor)	Emax (opioid μ receptor)
O=C(c1ccccc1)N1C[C@H]2C[C@@]34CC[C@@H]1[C@@H]2[C@@]31CCN(CC2CC2)[C@@H]4Cc2ccc(O)cc21 [Compound 78, [(1S,3aR,5aS,6R,11bR,11cS)-14-(cyclopropylmethyl)-10-hydroxy-1,2,3a,4,5,6,7,11c-octahydro-3H-6,11b-(iminoethano)-1,5a-methanonaphtho[1,2-e]indol-3-yl](phenyl)methanone]	4.7%	50 to 70%	5.5%	< 1 nM	83%	–	–	–	–	–	–
O=C(c1cccc(Cl)c1)N1C[C@H]2C[C@@]34CC[C@@H]1[C@@H]2[C@@]31CCN(CC2CC2)[C@@H]4Cc2ccc(O)cc21 [Compound 79, (3-chlorophenyl)[(1S,3aR,5aS,6R,11bR,11cS)-14-(cyclopropylmethyl)-10-hydroxy-1,2,3a,4,5,6,7,11c-octahydro-3H-6,11b-(iminoethano)-1,5a-methanonaphtho[1,2-e]indol-3-yl]methanone]	8.8%	70 to 90%	9.6%	–	–	< 1 nM	75%	–	–	–	–
CC(C)NC(=O)N1C[C@H]2CC34CCC1C2C31CCN(CC2CC2)C4Cc2ccc(O)cc21 (stereo partly shown) [Compound 159]	2.8%	70 to 90%	–	–	–	< 1 nM	76%	< 1 nM	37%	–	–
Cc1cc(C)nc(N2C[C@H]3C[C@@]45CCC2C3[C@@]42CCN(CC3CC3)[C@@H]5Cc3ccc(O)cc32)n1 (stereo partly drawn) [Compound 223, (1S,5aS,6R,11bR)-14-(cyclopropylmethyl)-3-(4,6-dimethylpyrimidin-2-yl)-2,3,3a,4,5,6,7,11c-octahydro-1H-6,11b-(iminoethano)-1,5a-methanonaphtho[1,2-e]indol-10-ol]	–	≥ 90%	–	–	–	–	–	–	–	–	–
Oc1ccc2c(c1)C13CCN(CC4CC4)C(C2)C12CCC1C3[C@@H](CN1c1cc(F)ccn1)C2 (stereo partly shown) [Compound 239]	–	≥ 90%	–	–	–	–	–	–	–	–	–
Oc1ccc2c(c1)C13CCN(CC4CC4)C(C2)C12CCC1C3[C@@H](CN1c1ccc3ccccc3n1)C2 (stereo partly shown) [Compound 243]	–	70 to 90%	–	–	–	–	–	–	–	–	–
Oc1ccc2c(c1)C13CCN(CC4CC4)C(C2)C12CCC1C3[C@@H](CN1c1cnccn1)C2 (stereo partly shown) [Compound 257]	–	70 to 90%	–	–	–	–	–	–	–	–	–
Cc1cc(C)nc(N2C[C@H]3C[C@@]45CCC2C3[C@@]42CCN(CC3CC3)[C@@H]5Cc3cccc(O)c32)n1 (stereo partly drawn) [Compound 293, (1S,5aS,6R,11bS)-14-(cyclopropylmethyl)-3-(4,6-dimethylpyrimidin-2-yl)-2,3,3a,4,5,6,7,11c-octahydro-1H-6,11b-(iminoethano)-1,5a-methanonaphtho[1,2-e]indol-11-ol]	–	–	–	–	–	< 10 nM	91%	> 50 nM	51%	> 50 nM	17%
O=C(c1ccccc1)N1C[C@H]2C[C@@]34CCC1C2[C@@]31CCN(CC2CC2)[C@@H]4Cc2ccccc21 (stereo partly drawn) [Compound 298, [(1S,5aS,6R,11bR)-14-(Cyclopropylmethyl)-4,5,6,7-tetrahydro-1H-6,11b-(iminoethano)-1,5a-methanonaphtho[1,2-e]indol-3(2H,3aH,11cH)-yl](phenyl)methanone]	–	≥ 90%	–	–	–	< 10 nM	102%	> 100 nM	32%	> 50 nM	16%
Cc1cc(C)nc(N2C[C@H]3CC45CCC2C3C42CCN(CC3CC3)C5Cc3ccccc32)n1 (stereo partly shown) [Compound 300]	–	–	–	–	–	< 50 nM	105%	> 500 nM	39%	> 100 nM	26%
NC(=O)c1ccc2c(c1)[C@]13CCN(CC4CC4)[C@H](C2)[C@]12CCC1C3[C@@H](CN1C(=O)c1ccccc1)O2 (stereo partly drawn) [Compound 306, (1S,5aS,6R,11bR)-3-benzoyl-14-(cyclopropylmethyl)-2,3,3a,4,5,6,7,11c-octahydro-1H-6,11b-(iminoethano)-1,5a-epoxynaphtho[1,2-e]indole-10-carboxamide]	2.8%	–	9.5%	–	–	< 10 nM	84%	–	–	–	–
Nc1ccc2c(c1)[C@]13CCN(CC4CC4)[C@H](C2)[C@]12CCC1C3[C@@H](CN1C(=O)c1ccccc1)O2 (stereo partly drawn) [Compound 308, [(1S,5aS,6R,11bR)-10-Amino-14-(cyclopropylmethyl)-4,5,6,7-tetrahydro-1H-6,11b-(iminoethano)-1,5a-epoxynaphtho[1,2-e]indol-3(2H,3aH,11cH)-yl](phenyl)methanone]	2.5%	–	–	–	–	< 10 nM	94%	> 100 nM	38%	–	–
COc1cc2c(cc1[N+](=O)[O-])C[C@H]1N(CC3CC3)CC[C@@]23C2C4CC[C@@]13C[C@@H]2CN4c1nc(C)cc(C)n1 (stereo partly drawn) [Compound 311, (1S,5aS,6R,11bR)-14-(cyclopropylmethyl)-3-(4,6-dimethylpyrimidin-2-yl)-10-methoxy-9-nitro-2,3,3a,4,5,6,7,11c-octahydro-1H-6,11b-(iminoethano)-1,5a-methanonaphtho[1,2-e]indole]	–	–	–	–	–	< 50 nM	82%	> 500 nM	16%	> 100 nM	18%
Oc1ccc2c(c1)C13C(O)CN(CC4CC4)C(C2)C12CCC1C3[C@@H](CN1Cc1ccccc1)O2 (stereo partly drawn) [Compound 329, (1S,3aR,5aS,6R,11bS,11cS,12R)-3-Benzyl-14-(cyclopropylmethyl)-1,2,3a,4,5,6,7,11c-octahydro-1H-6,11b-(iminoethano)-1,5a-epoxynaphtho[1,2-e]indole-10,12-diol]	0.9%	–	–	–	–	< 1 nM	76%	> 10 nM	14%	–	–
C[C@H]1[C@H]2C[C@@]34CC[C@H]([C@@H]2[C@]32CCN(CC3CC3)[C@@H]4Cc3ccc(O)cc32)N1C(=O)c1ccccc1 [Compound 334, [(1S,2S,3aR,5aS,6R,11bS,11cS)-14-(Cyclopropylmethyl)-10-hydroxy-2-methyl-1,2,3a,4,5,6,7,11c-octahydro-3H-6,11b-(iminoethano)-1,5a-methanonaphtho[1,2-e]indol-3-yl](phenyl)methanone]	2.9%	–	–	–	–	< 1 nM	87%	> 1 nM	39%	–	–
